In ChEMBL document CHEMBL1157952, “Neocimicigenosides A and B, cycloartane glycosides from the rhizomes of Cimicifuga racemosa and their effects on CRF-stimulated ACTH secretion from AtT-20 cells” (2006) one finds Activity data, which are given here for 2 compounds.

The test system of the assay is AtT20. The assay can be described thus: Induction of corticotropin releasing factor-stimulated ACTH secretion in mouse AtT20 cells. The assay is classed as functional.

In turn, `CC(=O)O[C@H]1[C@H]2C[C@@H](C)[C@H]3[C@](O2)(OC1(C)C)[C@H](O)[C@@]1(C)[C@@H]2CC[C@H]4C(C)(C)[C@@H](O[C@@H]5OC[C@H](O)[C@H](O)[C@H]5O)CC[C@@]45C[C@@]25CC[C@]31C` [NEOCIMICIGENOSIDE A] returned an Activity of 7 ng/mL. Then `CC(=O)O[C@H]1[C@H]2C[C@@H](C)[C@H]3[C@](O2)(OC1(C)C)[C@H](O)[C@@]1(C)[C@@H]2CC[C@H]4C(C)(C)[C@@H](O[C@@H]5OC[C@@H](O)[C@H](O)[C@H]5O)CC[C@@]45C[C@@]25CC[C@]31C` [NEOCIMICIGENOSIDE B], with 7.2 ng/mL.
